Experimental data published in patent publication US20230102554A1 (GB002, INC., priority 2019, published 2023).

What was measured:
[1] = biological target: T1, Human PDGFRβ, cytoplasmic domain (GST-PDGFRβ) (Homo sapiens, UniProt P09619); experiment: Human PDGFRβ biochemical inhibition assay (off-chip Mobility Shift Assay)
T1 construct: made in house
Summary of the method: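 GST-tagged cytoplasmic domain (aa 557-1106) from baculovirus was incubated 1 h at room temperature with compound, CSKtide, ATP at Km and Mg²⁺ in HEPES buffer, pH 7.5. Phosphorylated and unphosphorylated peptide were separated by off-chip mobility shift, and the product ratio P/(P+S) gave percent inhibition.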

[2] = biological target: T2, Human PDGFRα, cytoplasmic domain (GST-PDGFRα) (Homo sapiens, UniProt P16234); experiment: Human PDGFRα biochemical inhibition assay (off-chip Mobility Shift Assay)
T2 construct: made in house
T2 sequence (P16234 550-1089 T674I): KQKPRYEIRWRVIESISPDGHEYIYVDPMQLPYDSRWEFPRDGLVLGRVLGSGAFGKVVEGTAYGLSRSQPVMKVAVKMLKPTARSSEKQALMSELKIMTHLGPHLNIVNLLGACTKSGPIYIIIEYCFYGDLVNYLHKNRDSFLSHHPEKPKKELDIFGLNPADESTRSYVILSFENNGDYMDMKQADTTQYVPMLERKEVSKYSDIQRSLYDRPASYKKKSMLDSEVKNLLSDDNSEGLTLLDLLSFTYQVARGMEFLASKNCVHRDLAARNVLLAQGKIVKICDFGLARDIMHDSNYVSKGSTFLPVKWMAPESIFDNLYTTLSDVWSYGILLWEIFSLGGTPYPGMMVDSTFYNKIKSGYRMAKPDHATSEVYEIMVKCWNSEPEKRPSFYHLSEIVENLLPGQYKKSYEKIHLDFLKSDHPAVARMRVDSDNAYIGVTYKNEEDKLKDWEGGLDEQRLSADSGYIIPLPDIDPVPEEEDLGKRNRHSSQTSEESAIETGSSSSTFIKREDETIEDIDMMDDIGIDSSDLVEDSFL

T1 sequence (P09619 with tags, fused parts or gaps): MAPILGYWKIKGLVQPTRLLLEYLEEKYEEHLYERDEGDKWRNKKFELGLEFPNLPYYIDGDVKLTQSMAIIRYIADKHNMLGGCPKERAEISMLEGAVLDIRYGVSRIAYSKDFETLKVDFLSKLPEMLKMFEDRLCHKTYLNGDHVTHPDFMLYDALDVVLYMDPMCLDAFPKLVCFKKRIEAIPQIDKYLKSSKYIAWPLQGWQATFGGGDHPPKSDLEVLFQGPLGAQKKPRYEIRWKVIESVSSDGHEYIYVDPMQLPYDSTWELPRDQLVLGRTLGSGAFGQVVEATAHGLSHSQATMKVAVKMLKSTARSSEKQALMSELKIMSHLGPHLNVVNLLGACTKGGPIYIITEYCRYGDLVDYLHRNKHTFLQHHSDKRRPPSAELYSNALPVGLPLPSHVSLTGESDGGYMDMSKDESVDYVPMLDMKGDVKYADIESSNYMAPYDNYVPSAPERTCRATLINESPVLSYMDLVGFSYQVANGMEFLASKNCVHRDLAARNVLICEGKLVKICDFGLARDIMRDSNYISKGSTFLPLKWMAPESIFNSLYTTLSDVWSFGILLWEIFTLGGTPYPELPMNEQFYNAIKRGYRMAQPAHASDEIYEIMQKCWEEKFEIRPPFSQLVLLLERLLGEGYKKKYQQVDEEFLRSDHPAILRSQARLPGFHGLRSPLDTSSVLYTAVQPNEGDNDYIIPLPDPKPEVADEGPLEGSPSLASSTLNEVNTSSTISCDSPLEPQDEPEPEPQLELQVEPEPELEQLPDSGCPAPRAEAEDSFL

| IC50 [1] [nM] | IC50 [2] [nM] | Compound |
| --- | --- | --- |
| < 300 | < 300 | Cc1cc2ncc(N[C@@H](C)c3cc(NC(=O)c4ccc(C(F)(F)F)nc4)ccc3F)nc2s1 [Compound 615, (S)-N-(4-fluoro-3-(1-((6-methylthieno[2,3-b]pyrazin-3-yl)amino)ethyl)phenyl)-6-(trifluoromethyl)nicotinamide] |
| < 300 | < 300 | CCn1cc2ncc(N[C@@H](C)c3cc(NC(=O)c4ccc(CN5CCN(C)CC5)c(C)c4)ccc3C)nc2n1 [Compound 524, (S)-N-(3-(1-((2-ethyl-2H-pyrazolo[3,4-b]pyrazin-6-yl)amino)ethyl)-4-methylphenyl)-3-methyl-4-((4-methylpiperazin-1-yl)methyl)benzamide] |
| < 300 | < 300 | C[C@H](Nc1cnc2cnn(C)c2n1)c1cccc(NC(=O)c2ccc3c(c2)OCCO3)c1 [Compound 68, (S)-N-(3-(1-((1-methyl-1H-pyrazolo[3,4-b]pyrazin-6-yl)amino)ethyl)phenyl)-2,3-dihydrobenzo[b][1,4]dioxine-6-carboxamide] |
| 300 to 1000 | < 300 | CCn1cc2ncc(N[C@@H](C)c3cccc(NC(=O)Cc4cc(F)cc(F)c4)c3)nc2n1 [Compound 643, (S)-2-(3,5-difluorophenyl)-N-(3-(1-((2-ethyl-2H-pyrazolo[3,4-b]pyrazin-6-yl)amino)ethyl)phenyl)acetamide] |
